Measurements: patent US20230321086A1, “METHODS AND MATERIALS FOR INHIBITING NICOTINAMIDE PHOSPHORIBOSYLTRANSFERASE ACTIVITY” (Universiy of Pittsburgh - Of the Commonwealth System of …, priority 2020, published 2023)

How the values were obtained:
NAMPT = NAMPT (Homo sapiens, UniProt P43490); assay: Assay for in vitro NAMPT activity via NMN assessment; assay type: biochemical; details: read-out: A: NAMPT enzyme inhibitory activity, IC50
Method: The following were added to a well: 20 μL 2× test compound in Basic Buffer (0.02% BSA, 2 mM DTT, 12 mM MgCl2, 50 mM Tris pH7.5); 10 μL 8 μg/mL NAMPT, and 200 μM PRPP working solution (or PRPP working solution to background wells). 10 μL 100 μM NAM working solution was added to start the reaction. The plate was sealed and incubated for 45 minutes at 37° C. After incubation, 10 μL 20% acetophenone in DMSO, 10 μL 2N KOH, and 20 μL 88% formic acid were added. The plate was sealed and incubated for 30 minutes at 37° C. After incubation, fluorescence at Ex/Em 387/441 was read.
In each table header, A: NAMPT enzyme inhibitory activity, IC50 (μM); B: Cellular NAD inhibitory activity, IC50 (μM); and C: change in NAD levels in response to test compound, shown as % of NAD activity in the absence of test compound. […] A percentage of 100 percent would indicate no increase or decrease in NAD levels as compared to that measured for untreated control cells, while a percentage of 50 percent would indicate a decrease in NAD levels of 50 percent as compared to that measured for untreated control cells.

A431 cells = assay: Assay for total NADH and NAD+ measurements in cells; assay type: cell-based; details: Homo sapiens, A-431, read-out: B: Cellular NAD inhibitory activity, IC50
Summary of the method: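 Cells (2,000/well) treated with compounds overnight, washed with PBS containing 1 mM CaCl2 and MgCl2, lysed with 0.4% DTAB in phosphate buffer pH 8.0. Reaction mix added and fluorescence (Ex/Em 530/585) followed over 8 cycles every 92 seconds; NAD given as % of untreated control.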

NAMPT, sequence (P43490 whole entry, species assumed): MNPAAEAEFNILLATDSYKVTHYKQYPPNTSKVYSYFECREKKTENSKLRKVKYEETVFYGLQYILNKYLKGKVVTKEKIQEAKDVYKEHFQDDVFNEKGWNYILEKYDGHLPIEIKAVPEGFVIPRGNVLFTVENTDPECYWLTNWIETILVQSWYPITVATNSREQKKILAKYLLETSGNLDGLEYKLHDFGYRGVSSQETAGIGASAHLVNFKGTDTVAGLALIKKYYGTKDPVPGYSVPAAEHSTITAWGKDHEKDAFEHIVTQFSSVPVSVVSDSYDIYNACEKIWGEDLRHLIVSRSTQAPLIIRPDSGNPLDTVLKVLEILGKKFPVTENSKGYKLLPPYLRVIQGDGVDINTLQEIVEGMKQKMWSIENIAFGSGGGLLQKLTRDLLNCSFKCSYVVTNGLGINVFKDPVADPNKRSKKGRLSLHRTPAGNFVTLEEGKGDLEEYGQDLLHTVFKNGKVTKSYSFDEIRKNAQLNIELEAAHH

Row | IC50 (NAMPT) [µM] | IC50 (A431 cells) [µM] | Compound
1 | < 1 | < 1 | O=C(Nc1cnc2nc(-c3ccc(F)cc3)c(-c3ccc(F)cc3)nc2c1)N1Cc2ccccc2C1 [BC20317]
2 | < 1 | < 1 | O=C(NCCc1cn[nH]c1)Nc1cnc2nc(-c3ccc(F)cc3)c(-c3ccc(F)cc3)nc2c1 [BC20318]
3 | < 1 | < 1 | O=C(NCCc1c[nH]cn1)Nc1cnc2nc(-c3ccc(F)cc3)c(-c3ccc(F)cc3)nc2c1 [BC20319]
4 | < 1 | < 1 | Nc1ccc(CCNC(=O)Nc2cnc3nc(-c4ccc(F)cc4)c(-c4ccc(F)cc4)nc3c2)cn1 [BC20320]
5 | < 1 | < 1 | O=C(Nc1cnc2nc(-c3ccc(F)cc3)c(-c3ccc(F)cc3)nc2c1)N1Cc2cccnc2C1 [BC20321]
6 | < 1 | < 1 | Fc1ccc(-c2nc3ccc(NC(=S)N4Cc5ccccc5C4)cc3nc2-c2ccc(F)cc2)cc1 [BC20322]
7 | < 1 | < 1 | Nc1ccc(CNC(=S)Nc2ccc3nc(-c4ccc(F)cc4)c(-c4ccc(F)cc4)nc3c2)cn1 [BC20323]
8 | < 1 | < 1 | Nc1ccc(CNC(=S)Nc2cnc3nc(-c4ccc(F)cc4)c(-c4ccc(F)cc4)nc3c2)cn1 [BC20324]
9 | < 1 | < 1 | O=C(NCc1cnc2nc(-c3ccc(F)cc3)c(-c3ccc(F)cc3)nc2c1)Nc1cccnc1 [BC20325]
10 | 1 to 25 | 1 to 25 | O=C(NCc1cccnc1)NCc1cnc2nc(-c3ccc(F)cc3)c(-c3ccc(F)cc3)nc2c1 [BC20326]
11 | < 1 | < 1 | O=C(NCc1cnc2nc(-c3ccc(F)cc3)c(-c3ccc(F)cc3)nc2c1)N1Cc2ccncc2C1 [BC20327]
12 | < 1 | < 1 | O=C(NCc1cnc2nc(-c3ccc(F)cc3)c(-c3ccc(F)cc3)nc2c1)c1cc2ccncc2o1 [BC20328]
13 | ≥ 25 | 1 to 25 | O=C(NCc1cnc2nc(-c3ccc(F)cc3)c(-c3ccc(F)cc3)nc2c1)c1cc2ccccc2s1 [BC20329]
14 | < 1 | < 1 | O=C(Nc1ccc2nc(-c3ccc(F)cc3)c(-c3ccc(F)cc3)nc2c1)N1Cc2ccccc2C1 [BC20330]
15 | < 1 | < 1 | Nc1ccc(CNC(=O)Nc2ccc3nc(-c4ccc(F)cc4)c(-c4ccc(F)cc4)nc3c2)cn1 [BC20331]
16 | < 1 | < 1 | O=C(NCc1cnc2nc(-c3ccc(F)cc3)c(-c3ccc(F)cc3)nc2c1)N1Cc2cccnc2C1 [BC20332]
17 | < 1 | < 1 | O=C(Nc1ccc2nc(-c3ccc(F)cc3)c(-c3ccc(F)cc3)nc2c1)N1Cc2cccnc2C1 [BC20333]
18 | < 1 | < 1 | O=C(Nc1cnc2nc(-c3ccc(F)cc3)c(-c3ccc(F)cc3)nc2c1)N1Cc2ccncc2C1 [BC20334]
